# Measurements published in US5349127A, “Expression of herbicide metabolizing cytochromes P450” (priority 1992, dated 1994).
# How the values were obtained:
# S. griseus PH4001 = test: Metabolism of 10001 by untransformed strain (Example 14); type: in vitro ADME, Streptomyces griseus; details: substrate 10001 120 ug/ml
# S. griseolus PH3809 = test: Metabolism of 10001 by strains transformed with pCS325 (Example 15); type: in vitro ADME, Streptomyces griseolus; details: substrate 10001
# Method: (§1) S. griseolus PH2003, S. griseus PH4001, S. ambofaciens PH4002, and S. lividans JI1326 were transformed with the plasmid pPAT108. The transformed S. griseolus strain, PH3826, was cultured for 24 hours in 150 mls of sporulation broth with 5 ug/ml thiostrepton. The transformed S. griseus strain, PH3832, and the transformed S. ambofaciens strain, PH3834, were cultured for 24 hours in 150 mls of trypticase soy broth with 5 ug/ml thiostrepton. The transformed S. lividans strain, PH3822, was similarly cultured in 150 mls of YEME broth with 5 ug/ml thiostrepton. Three hours before harvesting the cells, 50 mls of fresh medium of the same type with 5 ug/ml thiostrepton was added to each culture. The cells from each of the cultures were harvested by centrifugation, washed twice with 50 mMMOPS, pH7.2 and resuspended in five cell volumes of MOPS containing 0.2% glucose and 120 ug/ml of the sulfonylurea 10001. The cell suspensions were incubated at 30° C. with shaking and aliquots were removed at 0.5, 1, 2 and 4 hours. The supernatant of each aliquot was analyzed by HPLC and the concentration of the sulfonylurea compound 10001 and its metabolites 10002 and 10003 were determined.
# (§2) S. griseolus PH2003, S. griseus PH4001, S. ambofaciens PH4002, and S. lividans JI1326 were transformed with the plasmid pCS325. Cells of the transformed strains of S. griseolus PH3809, S. griseus PH3817, S. ambofaciens PH3818, and S. lividans PH3816, were grown and treated as described in Example 14, and the concentrations of the sulfonylurea compound 10001 and its metabolites 10002 and 10003 were determined.
# S. ambofaciens PH3818 = test: as above; type: in vitro ADME, Streptomyces ambofaciens; details: substrate 10001
# Method: as §1, §2
# [1] = test system: Tomato seedlings (Lycopersicon esculentum cv. Pixie); test: Tomato transplants in herbicide-treated soil after bacterial pretreatments (Example 18); type: in vivo; details: for Shoot Fresh Weight (mean of five plants): 22 days
# Method: One liter cultures of S. griseolus ATCC 11796, S. lividans pCAO200, S. lividans pCAO200-#9-SU1-FeS-B or S. lividans pCAO200-#12-SU1 were grown in YEME medium (sporulation broth for the S. griseolus culture) at 30° C. until the cultures were in late log phase of growth and the absorbance of each culture in a spectrophotometer at a wavelength of 600 nm was between 1.0 and 1.3. Tomato seedlings (Lycopersicon esculentum cv. "Pixie") were seeded directly into soiless media, Oasis Wedges® (Smithers-Oasis, Kent, Ohio), fertilized with 500 ppm Peter's® fertilizer (20:19:18); and 300 ppm of iron was added weekly. As the tomato plants develop, roots ramify through the Oasis Wedges®. The tomato plants were transplanted to pots when they were 4 inches tall as follows.
# Five inch standard round pots (without holes) were filled with Sassafras sandy loam (ph 6.7, 0.8% OM) and a single Oasis cube and then treated preemergence with either Classic® (10001) 25 DF (16, 32, 64, 125 and 250 grams active ingredient/hectare [g ai/ha]) or Oust® (10010) 75 DF at rates of 4, 8, 16, 32 and 64 g ai/ha), both herbicides available from E. I. du Pont de Nemours and Company, Wilmington, Del. The oasis cube was then removed and replaced by a transplant tomato dipped in either the cultures described above of S. griseolus ATCC 11796 (treatment A), S. lividans pCAO200 (treatment B), S. lividans pCAO200-#9-SU1-FeS-B (treatment C), S. lividans pCAO200-#12-SU1 (treatment D) or into water (treatment E). Five transplants were tested for each treatment at each dosage rate. The pots were placed on a greenhouse bench for 22 days and watered twice daily, after which shoot fresh weights of treatments were determined. Roots of these treatments and controls were examined too. Plants, soil and pots treated with bacterial cultures were double bagged and disposed by incineration.
# S. griseolus ATCC11796 = test: Metabolism of 10015 analogs to 10014 (Example 17); type: in vitro ADME, Streptomyces griseolus
# Method: Cultures of S. griseolus ATCC11796 were cultivated in sporulation-broth (50ml) at 30° C. with shaking for 17 hours. Each culture was then resuspended in 25 ml fresh sporulation broth, 3.0 mg sulfonylurea was added, and the culture reincubated for 4 days. Aliquots of the medium were then analyzed by HPLC. Formation of 10014 was measured based on similarity of retention time and UV spectrum of the test metabolite to that formed by metabolism of 10015.
smiles,measurement,setting,value
"COc1cc(Cl)nc(NC(=O)NS(=O)(=O)c2ccccc2C(=O)O)n1 [compound 10003, N-[(4-chloro-6-methoxy-pyrimidin-2-yol)aminocarbonyl]-2-carboxybenzenesulfonamide]",concentration in supernatant,S. griseus PH4001; 1.0 h,1 µM
same,concentration in supernatant,S. griseus PH4001; 4.0 h,4 µM
same,concentration in supernatant,S. griseolus PH3809; 0.5 h,6 µM
same,concentration in supernatant,S. griseolus PH3809; 1.0 h,16 µM
same,concentration in supernatant,S. griseolus PH3809; 2.0 h,24 µM
same,concentration in supernatant,S. griseolus PH3809; 4.0 h,25 µM
same,concentration in supernatant,S. ambofaciens PH3818; 0.5 h,1 µM
same,concentration in supernatant,S. ambofaciens PH3818; 1.0 h,3 µM
same,concentration in supernatant,S. ambofaciens PH3818; 2.0 h,7 µM
same,concentration in supernatant,S. ambofaciens PH3818; 4.0 h,13 µM
"COC(=O)c1ccccc1S(=O)(=O)NC(=O)Nc1nc(C)cc(C)n1 [compound 10010, N-[(4,6-dimethylpyrimidin-2-yl)aminocarbonyl]-2-methoxycarbonylbenzenesulfonamide]",Shoot Fresh Weight (mean of five plants),"[1]; 4 g ai/ha, Pretreatment A (Streptomyces griseolus ATCC11796)",1.16 grams
same,Shoot Fresh Weight (mean of five plants),"[1]; 4 g ai/ha, Pretreatment B (Streptomyces lividans pCAO200)",0.73 grams
same,Shoot Fresh Weight (mean of five plants),"[1]; 4 g ai/ha, Pretreatment C (S. lividans pCAO200#9SU1-FeS-B)",0.88 grams
same,Shoot Fresh Weight (mean of five plants),"[1]; 4 g ai/ha, Pretreatment D (S. lividans pCAO200#12SU1)",0.88 grams
same,Shoot Fresh Weight (mean of five plants),"[1]; 4 g ai/ha, Pretreatment E (water)",2.00 grams
same,Shoot Fresh Weight (mean of five plants),"[1]; 8 g ai/ha, Pretreatment A (Streptomyces griseolus ATCC11796)",0.58 grams
same,Shoot Fresh Weight (mean of five plants),"[1]; 8 g ai/ha, Pretreatment B (Streptomyces lividans pCAO200)",0.69 grams
same,Shoot Fresh Weight (mean of five plants),"[1]; 8 g ai/ha, Pretreatment C (S. lividans pCAO200#9SU1-FeS-B)",1.02 grams
same,Shoot Fresh Weight (mean of five plants),"[1]; 8 g ai/ha, Pretreatment D (S. lividans pCAO200#12SU1)",0.75 grams
same,Shoot Fresh Weight (mean of five plants),"[1]; 8 g ai/ha, Pretreatment E (water)",0.65 grams
same,Shoot Fresh Weight (mean of five plants),"[1]; 16 g ai/ha, Pretreatment A (Streptomyces griseolus ATCC11796)",0.32 grams
same,Shoot Fresh Weight (mean of five plants),"[1]; 16 g ai/ha, Pretreatment B (Streptomyces lividans pCAO200)",0.65 grams
same,Shoot Fresh Weight (mean of five plants),"[1]; 16 g ai/ha, Pretreatment C (S. lividans pCAO200#9SU1-FeS-B)",0.98 grams
same,Shoot Fresh Weight (mean of five plants),"[1]; 16 g ai/ha, Pretreatment D (S. lividans pCAO200#12SU1)",0.56 grams
same,Shoot Fresh Weight (mean of five plants),"[1]; 16 g ai/ha, Pretreatment E (water)",0.39 grams
same,Shoot fresh weight in treatment C versus the other treatments,"[1]; 32, 64 and 125 g ai/ha of 10001 or 16 and 32 g ai/ha of 10010",2-3 times greater
same,Shoot Fresh Weight (mean of five plants),"[1]; 32 g ai/ha, Pretreatment A (Streptomyces griseolus ATCC11796)",0.33 grams
same,Shoot Fresh Weight (mean of five plants),"[1]; 32 g ai/ha, Pretreatment B (Streptomyces lividans pCAO200)",0.42 grams
same,Shoot Fresh Weight (mean of five plants),"[1]; 32 g ai/ha, Pretreatment C (S. lividans pCAO200#9SU1-FeS-B)",1.01 grams
same,Shoot Fresh Weight (mean of five plants),"[1]; 32 g ai/ha, Pretreatment D (S. lividans pCAO200#12SU1)",0.62 grams
same,Shoot Fresh Weight (mean of five plants),"[1]; 32 g ai/ha, Pretreatment E (water)",0.28 grams
same,Shoot Fresh Weight (mean of five plants),"[1]; 64 g ai/ha, Pretreatment A (Streptomyces griseolus ATCC11796)",0.30 grams
same,Shoot Fresh Weight (mean of five plants),"[1]; 64 g ai/ha, Pretreatment B (Streptomyces lividans pCAO200)",0.39 grams
same,Shoot Fresh Weight (mean of five plants),"[1]; 64 g ai/ha, Pretreatment C (S. lividans pCAO200#9SU1-FeS-B)",0.46 grams
same,Shoot Fresh Weight (mean of five plants),"[1]; 64 g ai/ha, Pretreatment D (S. lividans pCAO200#12SU1)",0.29 grams
same,Shoot Fresh Weight (mean of five plants),"[1]; 64 g ai/ha, Pretreatment E (water)",0.34 grams
COc1cc(OC)nc(NC(=O)NS(=O)(=O)c2cccc3c2S(=O)(=O)N(C(C)C)C3)n1 [compound 10015],metabolism by P450SU1 to phytotoxic 10014,S. griseolus ATCC11796,metabolized
